The source of these data is ChEMBL document CHEMBL5620387, “Discovery of 4'-trifluoromethylchalcones as novel, potent and selective hCYP1B1 inhibitors without concomitant AhR activation” (Eur J Med Chem, 2023).

Each structure is given as a SMILES string.

In general, IC50 refers to the concentration needed to halve the response being measured. Broadly, the half-life is the time needed for the level to fall by half in the phase considered.

Data set [1] addresses T1, Cytochrome P450 1A2 (Homo sapiens, UniProt P05177).
T1 sequence (P05177 whole entry): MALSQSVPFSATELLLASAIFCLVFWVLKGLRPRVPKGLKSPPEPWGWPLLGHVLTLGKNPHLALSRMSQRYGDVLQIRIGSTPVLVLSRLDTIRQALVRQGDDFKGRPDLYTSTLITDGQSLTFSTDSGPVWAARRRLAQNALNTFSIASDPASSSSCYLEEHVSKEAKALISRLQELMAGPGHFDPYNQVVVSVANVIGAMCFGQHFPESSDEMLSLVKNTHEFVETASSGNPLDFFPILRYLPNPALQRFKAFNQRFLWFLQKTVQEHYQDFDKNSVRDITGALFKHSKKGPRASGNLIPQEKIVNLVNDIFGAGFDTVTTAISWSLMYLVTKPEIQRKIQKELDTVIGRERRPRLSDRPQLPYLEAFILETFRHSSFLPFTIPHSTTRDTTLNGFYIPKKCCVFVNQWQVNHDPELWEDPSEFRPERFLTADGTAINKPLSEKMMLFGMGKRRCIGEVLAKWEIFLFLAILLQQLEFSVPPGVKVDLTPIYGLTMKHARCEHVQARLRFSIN
In words: Inhibition of human recombinant CYP1A2 assessed as fluorescence of resorufin. The data set is classed as ADME.

Data set [2] can be described thus: Metabolic stability in human liver microsomes assessed as half life measured after 60 mins by LC-UV analysis. The data set is classed as ADME, Microsome. A general note: Liver microsomes are vesicles of endoplasmic reticulum, rich in cytochrome P450 enzymes.
A further data set addresses Cytochrome P450 2E1 (Homo sapiens, UniProt P05181). In words: Inhibition of human CYP2E1 in human liver microsomes by LC-MS/MS analysis. The data set is classed as ADME, Microsome.
A further data set concerns the target Cytochrome P450 2C9 (Homo sapiens, UniProt P11712). As to the kind of experiment: Inhibition of human CYP2C9 in human liver microsomes by LC-MS/MS analysis. The data set is classed as ADME, Microsome.
Data set [3] addresses T1, Cytochrome P450 1A2. As to the kind of experiment: Inhibition of human CYP1A2 in human liver microsomes by LC-MS/MS analysis. It counts as ADME, Microsome.
The target in a further data set is T2, Cytochrome P450 2C8 (Homo sapiens, UniProt P10632).
T2 sequence (P10632 whole entry): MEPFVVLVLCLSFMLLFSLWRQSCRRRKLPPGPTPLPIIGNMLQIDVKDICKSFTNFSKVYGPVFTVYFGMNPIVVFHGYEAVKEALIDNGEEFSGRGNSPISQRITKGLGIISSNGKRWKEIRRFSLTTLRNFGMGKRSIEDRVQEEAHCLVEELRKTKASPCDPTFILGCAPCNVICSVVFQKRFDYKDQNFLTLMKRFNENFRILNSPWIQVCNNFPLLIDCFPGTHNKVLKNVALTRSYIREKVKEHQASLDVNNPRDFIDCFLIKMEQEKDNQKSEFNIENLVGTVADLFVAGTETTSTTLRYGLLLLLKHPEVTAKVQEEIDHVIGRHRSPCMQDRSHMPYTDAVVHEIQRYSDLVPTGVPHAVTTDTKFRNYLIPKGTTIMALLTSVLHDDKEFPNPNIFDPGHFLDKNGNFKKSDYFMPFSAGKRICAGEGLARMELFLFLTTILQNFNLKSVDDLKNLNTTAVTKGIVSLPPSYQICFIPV
In words: Inhibition of human CYP2C8 in human liver microsomes by LC-MS/MS analysis. It counts as ADME, Microsome.

A further data set has as its target Cytochrome P450 2C19 (Homo sapiens, UniProt P33261). In words: Inhibition of human CYP2C19 in human liver microsomes by LC-MS/MS analysis. The data set is classed as ADME, Microsome.
Another data set has as its target Cytochrome P450 3A4 (Homo sapiens, UniProt P08684). As to the kind of experiment: Inhibition of human CYP3A4 measured after 3 mins incubation by fluorescence assay. The data set is classed as ADME.
Data set [4] has as its target T3, Aryl hydrocarbon receptor (Homo sapiens, UniProt P35869).
T3 sequence (P35869 whole entry): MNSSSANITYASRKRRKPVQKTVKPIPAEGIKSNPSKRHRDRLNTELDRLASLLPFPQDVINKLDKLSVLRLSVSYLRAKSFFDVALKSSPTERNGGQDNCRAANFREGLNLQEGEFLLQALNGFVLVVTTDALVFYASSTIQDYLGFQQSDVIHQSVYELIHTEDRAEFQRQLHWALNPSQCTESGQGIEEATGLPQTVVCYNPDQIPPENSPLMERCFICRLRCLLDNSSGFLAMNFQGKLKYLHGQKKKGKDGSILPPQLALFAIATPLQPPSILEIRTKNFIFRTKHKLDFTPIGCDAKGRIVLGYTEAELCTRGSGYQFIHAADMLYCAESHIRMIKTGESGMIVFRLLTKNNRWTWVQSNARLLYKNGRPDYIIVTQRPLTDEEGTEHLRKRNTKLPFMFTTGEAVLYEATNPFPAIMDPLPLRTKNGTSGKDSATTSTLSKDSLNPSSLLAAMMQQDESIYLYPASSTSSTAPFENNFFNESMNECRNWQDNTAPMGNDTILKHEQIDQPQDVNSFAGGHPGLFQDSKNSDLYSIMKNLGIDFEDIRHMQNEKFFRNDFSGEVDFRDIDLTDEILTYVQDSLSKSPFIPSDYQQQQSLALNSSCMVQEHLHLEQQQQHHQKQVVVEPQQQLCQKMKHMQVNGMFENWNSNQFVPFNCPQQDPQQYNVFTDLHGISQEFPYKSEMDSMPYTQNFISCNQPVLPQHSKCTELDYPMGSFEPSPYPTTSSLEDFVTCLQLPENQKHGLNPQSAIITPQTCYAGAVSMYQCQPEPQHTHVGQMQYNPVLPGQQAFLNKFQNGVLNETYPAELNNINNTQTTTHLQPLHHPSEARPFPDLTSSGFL
As to the kind of experiment: Antagonist activity at aryl hydrocarbon receptor (unknown origin) expressed in HEK293T cells assessed as luciferase activity at 10 uM measured after 24 hrs. The data set is classed as toxicity, cell-based.

A further data set concerns the target T4, Cytochrome P450 2A6 (Homo sapiens, UniProt P11509).
T4 sequence (P11509 whole entry): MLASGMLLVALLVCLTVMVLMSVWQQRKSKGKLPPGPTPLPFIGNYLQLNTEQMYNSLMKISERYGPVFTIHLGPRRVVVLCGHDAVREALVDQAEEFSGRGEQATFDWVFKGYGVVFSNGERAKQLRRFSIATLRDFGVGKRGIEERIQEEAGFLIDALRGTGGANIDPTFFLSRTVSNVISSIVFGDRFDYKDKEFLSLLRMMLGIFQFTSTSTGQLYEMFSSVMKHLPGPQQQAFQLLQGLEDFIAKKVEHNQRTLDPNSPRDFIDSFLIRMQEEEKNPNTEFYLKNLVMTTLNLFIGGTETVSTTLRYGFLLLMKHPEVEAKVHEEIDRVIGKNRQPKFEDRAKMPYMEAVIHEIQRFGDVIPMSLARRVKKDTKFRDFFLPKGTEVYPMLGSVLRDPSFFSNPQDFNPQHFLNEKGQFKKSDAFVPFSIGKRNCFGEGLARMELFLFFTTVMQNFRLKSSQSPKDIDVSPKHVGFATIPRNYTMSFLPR
In words: Inhibition of human CYP2A6 in human liver microsomes by LC-MS/MS analysis. The data set is classed as ADME, Microsome.

The nature of data set [5]: Metabolic stability in human liver microsomes assessed as relative remaining concentration measured after 60 mins by LC-UV analysis. The conditions noted are these: read-out: INH. The data set is classed as ADME, Microsome.
Another data set addresses Cytochrome P450 2D6 (Homo sapiens, UniProt P10635). As to the kind of experiment: Inhibition of human CYP2D6 in human liver microsomes by LC-MS/MS analysis. It counts as ADME, Microsome.

Sequence of Cytochrome P450 2C9 (P11712 whole entry): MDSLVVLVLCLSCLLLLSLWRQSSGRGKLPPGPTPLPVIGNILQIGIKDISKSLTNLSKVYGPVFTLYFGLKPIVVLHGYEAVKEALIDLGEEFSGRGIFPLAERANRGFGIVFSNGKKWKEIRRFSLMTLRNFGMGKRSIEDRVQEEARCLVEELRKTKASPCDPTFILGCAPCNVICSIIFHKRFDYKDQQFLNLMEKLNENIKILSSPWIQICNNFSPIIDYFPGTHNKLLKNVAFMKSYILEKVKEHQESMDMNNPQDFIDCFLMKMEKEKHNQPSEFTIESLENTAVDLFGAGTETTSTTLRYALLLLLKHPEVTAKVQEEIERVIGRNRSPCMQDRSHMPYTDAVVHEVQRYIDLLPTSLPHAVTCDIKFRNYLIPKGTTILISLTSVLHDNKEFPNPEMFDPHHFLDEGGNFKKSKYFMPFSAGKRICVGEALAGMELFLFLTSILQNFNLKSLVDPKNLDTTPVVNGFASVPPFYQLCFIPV
Sequence of Cytochrome P450 3A4 (P08684 whole entry): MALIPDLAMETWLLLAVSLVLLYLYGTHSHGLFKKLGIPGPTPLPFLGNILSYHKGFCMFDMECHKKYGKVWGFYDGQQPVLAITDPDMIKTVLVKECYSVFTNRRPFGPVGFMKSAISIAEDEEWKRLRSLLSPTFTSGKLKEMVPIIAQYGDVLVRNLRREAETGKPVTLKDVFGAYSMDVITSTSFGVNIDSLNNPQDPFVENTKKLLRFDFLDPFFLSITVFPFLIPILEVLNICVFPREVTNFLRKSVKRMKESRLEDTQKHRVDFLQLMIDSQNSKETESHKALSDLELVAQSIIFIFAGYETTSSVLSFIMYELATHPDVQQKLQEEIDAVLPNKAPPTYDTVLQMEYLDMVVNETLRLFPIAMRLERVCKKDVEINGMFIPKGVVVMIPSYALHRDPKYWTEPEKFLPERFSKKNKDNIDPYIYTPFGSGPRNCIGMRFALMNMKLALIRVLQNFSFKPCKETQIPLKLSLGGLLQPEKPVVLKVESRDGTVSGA
Sequence of Cytochrome P450 2C19 (P33261 whole entry): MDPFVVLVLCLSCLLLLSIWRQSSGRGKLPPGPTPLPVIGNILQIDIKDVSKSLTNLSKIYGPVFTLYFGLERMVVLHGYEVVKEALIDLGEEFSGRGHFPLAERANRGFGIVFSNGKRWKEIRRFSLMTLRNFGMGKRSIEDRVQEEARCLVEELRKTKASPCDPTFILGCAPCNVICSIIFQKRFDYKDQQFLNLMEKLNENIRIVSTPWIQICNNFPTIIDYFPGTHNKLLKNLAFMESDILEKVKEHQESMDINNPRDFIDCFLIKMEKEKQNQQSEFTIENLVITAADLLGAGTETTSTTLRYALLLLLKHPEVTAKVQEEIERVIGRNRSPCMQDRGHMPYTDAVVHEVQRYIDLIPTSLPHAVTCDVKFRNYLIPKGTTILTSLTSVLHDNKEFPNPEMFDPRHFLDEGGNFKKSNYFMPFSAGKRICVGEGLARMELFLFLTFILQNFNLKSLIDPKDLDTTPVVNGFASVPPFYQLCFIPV
Sequence of Cytochrome P450 2D6 (P10635 whole entry): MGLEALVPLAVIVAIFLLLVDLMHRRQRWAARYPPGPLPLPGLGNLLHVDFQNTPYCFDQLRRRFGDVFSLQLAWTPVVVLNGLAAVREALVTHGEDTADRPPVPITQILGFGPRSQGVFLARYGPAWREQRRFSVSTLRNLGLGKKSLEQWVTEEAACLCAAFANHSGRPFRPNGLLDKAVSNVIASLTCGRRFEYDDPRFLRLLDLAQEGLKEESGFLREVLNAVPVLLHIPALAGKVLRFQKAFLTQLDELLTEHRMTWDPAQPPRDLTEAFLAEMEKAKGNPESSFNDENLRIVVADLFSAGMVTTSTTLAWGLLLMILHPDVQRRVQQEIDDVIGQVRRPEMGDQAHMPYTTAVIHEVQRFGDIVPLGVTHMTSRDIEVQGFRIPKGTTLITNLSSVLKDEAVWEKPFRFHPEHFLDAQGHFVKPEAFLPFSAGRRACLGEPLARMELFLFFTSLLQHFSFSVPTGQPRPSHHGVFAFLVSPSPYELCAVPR
Sequence of Cytochrome P450 2E1 (P05181 whole entry): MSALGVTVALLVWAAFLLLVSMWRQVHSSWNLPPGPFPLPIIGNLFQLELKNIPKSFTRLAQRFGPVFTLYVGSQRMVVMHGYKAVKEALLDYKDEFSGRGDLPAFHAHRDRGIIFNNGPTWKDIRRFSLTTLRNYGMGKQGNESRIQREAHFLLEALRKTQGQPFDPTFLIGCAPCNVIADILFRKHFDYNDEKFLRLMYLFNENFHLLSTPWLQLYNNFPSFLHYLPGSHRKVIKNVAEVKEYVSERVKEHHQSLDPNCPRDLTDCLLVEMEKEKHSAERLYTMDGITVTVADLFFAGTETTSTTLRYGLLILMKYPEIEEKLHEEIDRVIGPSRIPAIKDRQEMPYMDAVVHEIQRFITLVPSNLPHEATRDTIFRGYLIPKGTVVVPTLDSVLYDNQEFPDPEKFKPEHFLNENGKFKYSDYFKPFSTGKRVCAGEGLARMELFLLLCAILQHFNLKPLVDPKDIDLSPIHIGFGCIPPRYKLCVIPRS

Take `COc1cc(OC)c(/C=C/C(=O)c2ccc(C(F)(F)F)cc2)cc1Cl`: the IC50 at Cytochrome P450 1A2 [1], at Cytochrome P450 2E1, on Cytochrome P450 2C9, against Cytochrome P450 1A2 [3], on Cytochrome P450 2C8 and on Cytochrome P450 2C19 was greater than 100 µM each time. Also, the IC50 at Cytochrome P450 3A4, at Cytochrome P450 2A6 and at Cytochrome P450 2D6 was greater than 100 µM throughout. Further, the half-life in data set [2] came out at 1.07 h. Besides, in data set [4], the outcome was Active. The remaining at 1 h in data set [5] worked out at 54.5%.
